Where two headings read alike, the source gives them in different places.
Experiments:
[1] = Log P by HPLC on reversed phase columns, method [a] (acidic range, 0.1% formic acid)
Procedure: In the following, measurement of Log P values was performed according to EEC directive 79/831 Annex V.A8 by HPLC (High Performance Liquid Chromatography) on reversed phase columns with the following methods: • ^[a]
If more than one Log P value is available within the same method, all the values are given and separated by “+”.
Calibration was done with straight-chain alkan2-ones (with 3 to 16 carbon atoms) with known Log P values (measurement of Log P values using retention times with linear interpolation between successive alkanones).

Pyricularia oryzae = assay: microbe, parasite or virus in culture; assay type: cell-based; conditions: 120 h, read-out: efficacy (inhibition of fungal growth)
Leptnosphaeria nodorum [2] = assay: Example D: Leptnosphaeria nodorum in vitro cell test; assay type: cell-based; conditions: 144 h, read-out: efficacy (inhibition of fungal growth)
[3] = system: Colletotrichum lindemuthianum; assay: Example F: Colletotrichum lindemuthianum in vitro cell test; assay type: cell-based; conditions: 144 h, read-out: efficacy (inhibition of fungal growth)
Ustilago avenae = assay: Example J: comparative data, Ustilago avenae in vitro cell test; assay type: cell-based; conditions: rate of application 20 ppm; 4 days incubation
Botrytis cinerea = assay: Example H: comparative data, in vivo preventive test on Botrytis cinerea (grey mould), gherkin; conditions: rate of application 500 ppm, evaluated 4 to 5 days after inoculation
Leptnosphaeria nodorum [4] = assay: Example I: comparative data, Leptnosphaeria nodorum in vitro cell test; assay type: cell-based; conditions: rate of application 4 ppm; 6 days incubation
[5] = LogP, method [a] / Method A: LC-UV, acidic range
[6] = logP, HPLC on reversed phase columns, method [a]: acidic range
[7] = 20 ppm of active ingredient, 6 days incubation

OCc1ccnn1-c1c(F)cccc1Br [IXb-01, [1-(2-bromo-6-fluorophenyl)-1H-pyrazol-5-yl]methanol]
chromatographic logP [1, 5]: 1.27

Fc1cccc2cc(Nc3ccccc3-c3ccnn3Cc3ccccc3)cnc12 [Example I-096, N-[2-(1-benzyl-1H-pyrazol-5-yl)phenyl]-8-fluoroquinolin-3-amine]
inhibition at 20 ppm (Pyricularia oryzae): 90 to 100%
chromatographic logP [1, 5]: 3.49
chromatographic logP [1, 6]: 3.49
inhibition at 20 ppm (Leptnosphaeria nodorum [2]; [7]): 90 to 100%
inhibition at 20 ppm [3, 7]: 90 to 100%

CC(C)(C)OC(=O)N(c1cnc2ccccc2c1)c1ccccc1-n1nccc1C=O [XX-06, tert-butyl [2-(5-formyl-1H-pyrazol-1-yl)phenyl]quinolin-3-ylcarbamate]
chromatographic logP [1, 5]: 3.06

COC(=O)c1ccnn1-c1ccccc1N(C(=O)OC(C)(C)C)c1cnc2ccccc2c1 [XX-05, Methyl 1-(2-(tert-butoxycarbonyl(quinolin-3-yl)amino)phenyl)-1H-pyrazole-5-carboxylate]
chromatographic logP [1, 5]: 3.19

CC1(C)OB(c2ccccc2Nc2cnc3c(F)cccc3c2)OC1(C)C [VI-01, 8-fluoro-N-[2-(4,4,5,5-tetramethyl-1,3,2-dioxaborolan-2-yl)phenyl]quinolin-3-amine]
chromatographic logP [1, 5]: 4.87

CC(C)(C)OC(=O)N(c1cnc2ccccc2c1)c1cccc(F)c1-n1nccc1CO[Si](C)(C)C(C)(C)C [XX-09, tert-butyl {2-[5-({[tert-butyl(dimethyl)silyl]oxy}methyl)-1H-pyrazol-1-yl]-3-fluorophenyl}quinolin-3-ylcarbamate]
chromatographic logP [1, 5]: 5.8

C=C(C)c1ccnn1-c1ccccc1Oc1cnc2ccccc2c1 [drawing 52, reference compound]
Efficacy in % (Ustilago avenae): 1%

Cc1nc2c(F)c(F)ccc2cc1N(C)c1ccccc1-c1ccn(C(C)C)n1 [Example I-046, 7,8-difluoro-N-[2-(1-isopropylpyrazol-3-yl)phenyl]-N,2-dimethyl-quinolin-3-amine]
inhibition at 20 ppm (Pyricularia oryzae): 80 to 89%
chromatographic logP [1, 5]: 4.36
chromatographic logP [1, 6]: 4.36

COC(=O)c1ccnn1-c1c(F)cccc1N(C(=O)OC(C)(C)C)c1cnc2ccccc2c1 [XX-03, methyl 1-{2-[(tert-butoxycarbonyl)(quinolin-3-yl)amino]-6-fluorophenyl}-1H-pyrazole-5-carboxylate]
chromatographic logP [1, 5]: 3.36

CC1(C)OB(c2ccccc2Cc2cnc3ccccc3c2)OC1(C)C [VI-03, 3-[2-(4,4,5,5-tetramethyl-1,3,2-dioxaborolan-2-yl)benzyl]quinoline]
chromatographic logP [1, 5]: 3.39

Cc1nc2c(F)c(F)ccc2cc1Nc1ccccc1-c1ccn(C(C)C)n1 [Example I-043, 7,8-difluoro-N-[2-(1-isopropylpyrazol-3-yl)phenyl]-2-methyl-quinolin-3-amine]
inhibition at 20 ppm (Pyricularia oryzae): 90 to 100%
chromatographic logP [1, 6]: 5
inhibition at 20 ppm (Leptnosphaeria nodorum [2]): 80 to 89%

CC(C)(C)OC(=O)N(c1cnc2ccccc2c1)c1cccc(F)c1-n1nccc1C(=O)O [XX-02, 1-{2-[(tert-butoxycarbonyl)(quinolin-3-yl)amino]-6-fluorophenyl}-1H-pyrazole-5-carboxylic acid]
chromatographic logP [1, 5]: 2.62

CC(C)n1ccc(-c2c(F)cccc2Oc2cnc3ccccc3c2)n1 [drawing 47, reference compound]
Efficacy in % (Botrytis cinerea): 68%

COC(=O)c1ccn(-c2ccccc2Nc2cnc3ccccc3c2)n1 [Example I-062, methyl 1-[2-(3-quinolylamino)phenyl]pyrazole-3-carboxylate]
chromatographic logP [1, 5]: 2.16
chromatographic logP [1, 6]: 2.16

CC(C)(C)[Si](C)(C)OCc1ccnn1-c1c(N)cccc1F [IXb-04, 2-[5-({[tert-butyl(dimethyl)silyl]oxy}methyl)-1H-pyrazol-1-yl]-3-fluoroaniline]
chromatographic logP [1, 5]: 4.1

Fc1cccc2cc(Nc3ccccc3Br)cnc12 [N-(2-bromophenyl)-8-fluoro-quinolin-3-amine]
chromatographic logP [1, 5]: 3.27

C=C(C)c1ccnn1-c1ccccc1Oc1cnc2ccccc2c1 [drawing 46, reference compound]
Efficacy in % (Botrytis cinerea): 20%

CCn1nccc1-c1ccccc1Nc1cnc2c(F)cccc2c1 [Example I-080, N-[2-(1-ethyl-1H-pyrazol-5-yl)phenyl]-8-fluoroquinolin-3-amine]
inhibition at 20 ppm (Pyricularia oryzae): 80 to 89%
chromatographic logP [1, 5]: 2.82
chromatographic logP [1, 6]: 2.84
inhibition at 20 ppm (Leptnosphaeria nodorum [2]; [7]): 90 to 100%
inhibition at 20 ppm [3, 7]: 90 to 100%

CC(C)(C)n1nccc1-c1c(F)cccc1Br [IXa-03, 5-(2-bromo-6-fluorophenyl)-1-tert-butyl-1H-pyrazole]
chromatographic logP [1, 5]: 3.61

C=C(C)c1ccnn1-c1ccccc1Oc1cnc2ccccc2c1 [drawing 50, reference compound]
Efficacy in % (Leptnosphaeria nodorum [4]): 64%

CC(C)(C)OC(=O)N(c1cnc2ccccc2c1)c1cccc(F)c1-n1nccc1C=O [XX-10, tert-butyl [3-fluoro-2-(5-formyl-1H-pyrazol-1-yl)phenyl]quinolin-3-ylcarbamate]
chromatographic logP [1, 5]: 3.24

CC(C)(C)OC(=O)N(c1cnc2ccccc2c1)c1ccccc1-n1nccc1C(=O)O [XX-01, 1-{2-[(tert-butoxycarbonyl)(quinolin-3-yl)amino]phenyl}-1H-pyrazole-5-carboxylic acid]
chromatographic logP [1, 5]: 2.42

CC(C)(C)OC(=O)N(c1cnc2ccccc2c1)c1ccccc1-n1nccc1CO[Si](C)(C)C(C)(C)C [XX-07, tert-butyl {2-[5-({[tert-butyl(dimethyl)silyl]oxy}methyl)-1H-pyrazol-1-yl]phenyl}quinolin-3-ylcarbamate]
chromatographic logP [1, 5]: 5.84

Cc1nc2c(F)c(F)ccc2cc1Nc1cccc(F)c1-c1ccnn1C [Example I-050, 7,8-difluoro-N-[3-fluoro-2-(1-methyl-1H-pyrazol-5-yl)phenyl]-2-methylquinolin-3-amine]
inhibition at 20 ppm (Pyricularia oryzae): 90 to 100%
chromatographic logP [1, 5]: 3.07
chromatographic logP [1, 6]: 3.09
inhibition at 20 ppm (Leptnosphaeria nodorum [2]; [7]): 90 to 100%
inhibition at 20 ppm [3, 7]: 90 to 100%

CC(C)(C)[Si](C)(C)OCc1ccnn1-c1c(F)cccc1Br [IXb-02, 1-(2-bromo-6-fluorophenyl)-5-({[tert-butyl(dimethyl)silyl]oxy}methyl)-1H-pyrazole]
chromatographic logP [1, 5]: 4.96

CC(C)(C)OC(=O)N(c1cnc2ccccc2c1)c1ccccc1-n1nccc1CO [XX-12, tert-butyl {2-[5-(hydroxymethyl)-1H-pyrazol-1-yl]phenyl}quinolin-3-ylcarbamate]
chromatographic logP [1, 5]: 2.35

Cn1nccc1-c1c(F)cccc1Br [IXa-01, 5-(2-bromo-6-fluorophenyl)-1-methyl-1H-pyrazole]
chromatographic logP [1, 5]: 2.4

CC(C)(C)OC(=O)N(c1cnc2ccccc2c1)c1cccc(F)c1-n1nccc1C(C)(C)O [XX-11, tert-butyl {3-fluoro-2-[5-(2-hydroxypropan-2-yl)-1H-pyrazol-1-yl]phenyl}quinolin-3-ylcarbamate]
chromatographic logP [1, 5]: 3.33

Cc1nc2ccccc2nc1Nc1cccc(F)c1-c1ccnn1C [Example I-083, N-[3-fluoro-2-(1-methyl-1H-pyrazol-5-yl)phenyl]-3-methylquinoxalin-2-amine]
inhibition at 20 ppm (Pyricularia oryzae): 90 to 100%
chromatographic logP [1, 5]: 2.82
chromatographic logP [1, 6]: 2.82
inhibition at 20 ppm (Leptnosphaeria nodorum [2]; [7]): 90 to 100%
inhibition at 20 ppm [3, 7]: 90 to 100%

COC(=O)c1ccnn1-c1c(F)cccc1Br [IXb-03, methyl 1-(2-bromo-6-fluorophenyl)-1H-pyrazole-5-carboxylate]
chromatographic logP [1, 5]: 2.53

COC(=O)c1ccnn1-c1ccccc1Nc1cnc2ccccc2c1 [Example I-064, methyl 1-[2-(quinolin-3-ylamino)phenyl]-1H-pyrazole-5-carboxylate]
chromatographic logP [1, 5]: 2.02
chromatographic logP [1, 6]: 2.02
inhibition at 20 ppm (Leptnosphaeria nodorum [2]; [7]): 70 to 79%
inhibition at 20 ppm [3, 7]: 80 to 89%

CCn1nccc1-c1c(F)cccc1Br [IXa-04, 5-(2-bromo-6-fluorophenyl)-1-ethyl-1H-pyrazole]
chromatographic logP [1, 5]: 2.71

CC(C)(C)[Si](C)(C)OCc1ccnn1-c1ccccc1Nc1cnc2ccccc2c1 [Example I-069, N-{2-[5-({[tert-butyl(dimethyl)silyl]oxy}methyl)-1H-pyrazol-1-yl]phenyl}quinolin-3-amine]
chromatographic logP [1, 5]: 4.92
chromatographic logP [1, 6]: 4.92
inhibition at 20 ppm (Leptnosphaeria nodorum [2]; [7]): 80 to 89%

CC(C)n1nccc1-c1c(F)cccc1Br [IXa-02, 5-(2-bromo-6-fluorophenyl)-1-isopropyl-1H-pyrazole]
chromatographic logP [1, 5]: 3.09

CC1(C)OB(c2ccccc2Nc2cnc3ccccc3c2)OC1(C)C [VI-02, N-[2-(4,4,5,5-tetramethyl-1,3,2-dioxaborolan-2-yl)phenyl]quinolin-3-amine]
chromatographic logP [1, 5]: 4.29

C=C(C)c1ccnn1-c1ccccc1N(C(=O)OC(C)(C)C)c1cnc2ccccc2c1 [XX-04, tert-butyl {2-[5-(prop-1-en-2-yl)-1H-pyrazol-1-yl]phenyl}quinolin-3-ylcarbamate]
chromatographic logP [1, 5]: 3.67

CC(C)n1ccc(-c2c(F)cccc2Nc2cnc3ccccc3c2)n1 [Example I-067]
Efficacy in % (Botrytis cinerea): 95%
logP ([1]; HPLC on reversed phase columns, method [a]: acidic range): 1.94 ^[a]

Fc1cccc(Br)c1-c1ccnn1CCc1ccccc1 [IXa-05, 5-(2-bromo-6-fluorophenyl)-1-(2-phenylethyl)-1H-pyrazole]
chromatographic logP [1, 5]: 3.83

C=C(C)c1ccnn1-c1ccccc1Nc1cnc2ccccc2c1 [Example I-066]
Efficacy in % (Botrytis cinerea): 98%
inhibition at 20 ppm (Pyricularia oryzae): 90 to 100%
chromatographic logP [1, 6]: 2.73
inhibition at 20 ppm (Leptnosphaeria nodorum [2]): 90 to 100%
inhibition at 20 ppm [3]: 80 to 89%
Efficacy in % (Ustilago avenae): 63%
Efficacy in % (Leptnosphaeria nodorum [4]): 94%

CC(C)(C)OC(=O)N(c1cnc2ccccc2c1)c1cccc(F)c1-n1nccc1CO [XX-08, tert-butyl {3-fluoro-2-[5-(hydroxymethyl)-1H-pyrazol-1-yl]phenyl}quinolin-3-ylcarbamate]
chromatographic logP [1, 5]: 2.47

Reference: patent publication US11457629B2, “Heteroarylphenylaminoquinolines and analogues” (Bayer Aktiengesellschaft, priority 2017, dated 2022)
